Laboratory results taken from the NIST ThermoML archive (doi:10.1016/j.fluid.2007.11.005).

Details: Liquid, Bellows volumetry

CCCCCCCCOS(=O)(=O)[O-].CCCCn1cc[n+](C)c1 [1-butyl-3-methylimidazolium octyl sulfate]
mass density [kg/m3]
Details	312.9 K	332.8 K	352.8 K	373 K	393.1 K	413 K	432.9 K	452.7 K	472.6 K
100 kPa	1060	–	–	–	–	–	–	–	–
10000 kPa	1065	1052	1040	1028	1016	1004	992	978	964
20000 kPa	1070	1058	1046	1034	1023	1011	999	985	972
30000 kPa	1075	1063	1051	1040	1028	1017	1006	992	980
40000 kPa	1080	1068	1056	1045	1034	1023	1012	999	987
50000 kPa	1084	1073	1061	1050	1039	1029	1018	1005	993
60000 kPa	1091	1077	1066	1055	1045	1034	1023	1011	999
70000 kPa	1093	1081	1070	1060	1049	1039	1029	1017	1005
80000 kPa	1097	1085	1075	1064	1054	1044	1034	1022	1011
90000 kPa	1096	1089	1079	1068	1058	1049	1038	1027	1016
100000 kPa	–	1093	1083	1073	1063	1053	1043	1032	1021
110000 kPa	–	1097	1087	1077	1067	1057	1048	1036	1026
120000 kPa	–	1101	1090	1080	1071	1062	1052	1041	1030
130000 kPa	–	1104	1094	1084	1075	1066	1056	1045	1035
140000 kPa	–	1107	1097	1088	1078	1069	1060	1049	1039
150000 kPa	–	1111	1101	1091	1082	1073	1064	1053	1043
160000 kPa	–	1114	1104	1095	1086	1077	1068	1057	1047
170000 kPa	–	1117	1107	1098	1089	1080	1071	1061	1051
180000 kPa	–	1120	1111	1102	1093	1084	1075	1065	1055
190000 kPa	–	1123	1114	1105	1096	1087	1078	1068	1059
200000 kPa	–	1126	1117	1108	1099	1091	1082	1072	1062

CCCCn1cc[n+](C)c1.F[P-](F)(F)(F)(F)F [1-butyl-3-methylimidazolium hexafluorophosphate]
mass density [kg/m3]
Details	312.8 K	332.6 K	353.2 K	372.7 K	392.8 K	412.8 K	432.6 K	452.5 K	472.3 K
100 kPa	1352	–	–	–	–	–	–	–	–
10000 kPa	1358	1342	1325	1310	1299	1284	1269	1254	1240
20000 kPa	1363	1347	1332	1317	1305	1290	1276	1262	1248
30000 kPa	1368	1353	1338	1323	1311	1297	1283	1269	1256
40000 kPa	1373	1358	1343	1329	1317	1303	1290	1276	1263
50000 kPa	1378	1363	1349	1334	1323	1309	1296	1283	1270
60000 kPa	1383	1368	1354	1339	1329	1315	1302	1289	1276
70000 kPa	1388	1373	1359	1345	1334	1321	1308	1295	1282
80000 kPa	1392	1378	1364	1350	1339	1326	1313	1301	1289
90000 kPa	1396	1382	1368	1355	1344	1331	1319	1306	1294
100000 kPa	1400	1387	1373	1360	1349	1336	1324	1312	1300
110000 kPa	1405	1391	1377	1364	1354	1341	1329	1317	1305
120000 kPa	1409	1395	1382	1369	1359	1346	1334	1322	1311
130000 kPa	1412	1399	1386	1373	1363	1351	1339	1327	1316
140000 kPa	1416	1403	1390	1377	1367	1355	1343	1332	1320
150000 kPa	1420	1407	1394	1381	1372	1360	1348	1336	1325
160000 kPa	1424	1411	1398	1385	1376	1364	1352	1341	1330
170000 kPa	1427	1415	1402	1389	1380	1368	1357	1345	1334
180000 kPa	1431	1418	1405	1393	1384	1372	1361	1350	1339
190000 kPa	1435	1422	1409	1397	1388	1376	1365	1354	1343
200000 kPa	1438	1425	1413	1401	1392	1380	1369	1358	1347
